Measurements: patent US12663415B2, “Chromogenic and fluorogenic compounds and their use for biological detection” (AAT Bioquest, Inc., priority 2022, dated 2026)
Starred links: 1 amine or outer side, 2 acyl side, 3 side chain; linkers in the order of their positions; H or OH if unused. Positions of bridges follow the written chain, without caps; N, C: chain ends. Residues, ends and D or L forms follow the SMILES beside them. Chains are numbered I, II in the order given. Rhodamine110 = O=C1OC2(c3ccc(N[*:1])cc3Oc3cc(N[*:2])ccc32)c2ccccc21

Columns and labels:
[1] = tested on: E. coli endotoxin; experiment: Detection of endotoxin with Limulus Amebocyte Lysate (LAL) and fluorogenic substrate; format: biochemical; conditions: Ex/Em=490/525 nm
Description: FIG. 5. Illustrates the detection of E. coli endotoxin with an exemplary compound. E. coli endotoxin is measured in a black/solid bottom 96-well plate with Compound 7. The fluorescence intensity is recorded using a Gemini microplate reader at Ex/Em=490/525 nm, cutoff=515 nm. As low as 0.001 EU/mL of E. coli endotoxin can be detected.
Endotoxin is the major component of the outer membrane of Gram-negative bacteria. endotoxin is a potent stimulator of the vertebrate innate immune system and can cause fever, septic shock and eventually death. It is recognized as a biomarker for the detection of bacterial pathogen invasion and is responsible for the development of inflammatory response and endotoxic shock in extreme cases. […] The LAL enzymatic cascade can be activated by endotoxin at pH 6.0 to 7.5, and the amount of activated enzyme present can be measured by its ability to cleave the fluorogenic and/or chromogenic substrate. […] The endotoxin activity is proportional to the fluorescence intensity of rhodamine 110 resulting from the hydrolysis of Compound 7. The concentration of endotoxin in a sample can be calculated from a standard curve. […] The fluorescence intensities of the test sample solutions are recorded with a fluorescence microplate reader at Ex/Em=490/525 nm within 10-30 minutes.

[2] = tested on: Caspase 3/7; experiment: Detection of apoptosis / caspase 3/7 activities in Jurkat cells, whole cell assay; format: cell-based; conditions: staurosporine 0.5 μg/ml 2 hours, 50 μM substrate 2 hours at 37° C., Ex/Em=540/620 nm
Description: FIG. 3. Illustrates the detection of Caspase 3/7 activities in Jurkat cells with Compound 4. Jurkat cells are seeded on the same day at 200,000 cells/90 μL/well in a Costar black wall/clear bottom 96-well plate. The cells are treated with or without 1 μM of staurosporine for 5 hours. The caspase 3/7 working solution (100 μL/well) are added and incubated at room temperature for 1 hour. The fluorescence intensity is measured at Ex/Em=540/620 nm (Cutoff=610 nm) with FlexStation fluorescence microplate reader.
Jurkat T leukemia cells are grown in RPMI 1640 media (Life Technologies, Inc.) and 10% FCS (Sigma Chemical Company) in a 5% CO2-95% humidity incubator at 37° C., and maintained at a cell density between 4 and 8×10^5 cells/ml. Cells were harvested at 200×g and resuspended at 1×10^6 cells/ml into RPMI 1640 media containing 10% FCS and 1 ml each were dispensed in 2-wells of a 6-well plate. The apoptosis inducer staurosporine is added at 0.5 μg/ml concentration and the plate is incubated for 2 hours at 37° C. in a 5% CO2-95% humidity incubator. Cells are incubated with 50 μM of substrate Compound 4 for 2 hours at 37° C. in serum-free RPMI medium. The samples are analyzed with a fluorescence microplate reader (top or bottom read mode) at Ex/Em=540/620 nm (Cutoff=610 nm).

| Molecule | lowest detectable E. coli endotoxin ([1]; 96-well plate, cutoff=515 nm) | fluorescence of hydrolyzed product (rhodamine 110) after hydrolysis by LAL in the presence of endotoxins ([1]; LAL 100 U, 10 uM substrate) | cleavage of the caspase-3/7 substrate on induction of apoptosis [2] |
| --- | --- | --- | --- |
| CCC(C)C(NC(C)=O)C(=O)NC(CCC(=O)O)C(=O)NC(C)C(=O)NC(CCCNC(=N)N)C(=O)Nc1ccc2c(c1)Oc1cc(NC(=O)C(CCCNC(=N)N)NC(=O)C(C)NC(=O)C(CCC(=O)O)NC(=O)C(NC(C)=O)C(C)CC)ccc1C21OC(=O)c2ccccc21 (stereo not drawn) [Compound 7] (I: Ac-IEAR / II: Ac-IEAR; linker I:C-II:C via Rhodamine110; configuration not given here) | 0.001 EU/mL | strong green fluorescence | – |
| Compound 4 (DVED) | – | – | leads to cleavage |
